Mutagenic call data for eight molecules are collected here from PubChem BioAssay AID1259407 (Chemical Carcinogenesis Research Information System (CCRIS), 2018).

Calls of active or inactive are those of the source. The rule behind the calls is not given here.

In the series the test system is CCRIS mutagenicity, Ames/micronucleus/aberration tests. The experiment in a line: CCRIS mutagenicity studies.
Setting [1] is: Test System: AMES SALMONELLA TYPHIMURIUM, Strain/Indicator: TA97, Metabolic Activation: NONE, Method: PREINCUBATION
Setting [2] is: Test System: AMES SALMONELLA TYPHIMURIUM, Strain/Indicator: TA98, Metabolic Activation: NONE, Method: PREINCUBATION
[3] abbreviates: Test System: AMES SALMONELLA TYPHIMURIUM, Strain/Indicator: TA100, Metabolic Activation: NONE, Method: PREINCUBATION
[4] abbreviates: Test System: AMES SALMONELLA TYPHIMURIUM, Strain/Indicator: TA100, Metabolic Activation: NONE, Method: STANDARD PLATE.
[5] abbreviates: Test System: AMES SALMONELLA TYPHIMURIUM, Strain/Indicator: TA100, Metabolic Activation: RAT, LIVER, S-9, AROCLOR 1254, Method: STANDARD PLATE.
[6] abbreviates: Test System: AMES SALMONELLA TYPHIMURIUM, Strain/Indicator: TA98, Metabolic Activation: HAMSTER, LIVER, S-9, AROCLOR 1254 (10%), Method: PREINCUBATION
Setting [7] is: Test System: AMES SALMONELLA TYPHIMURIUM, Strain/Indicator: TA98, Metabolic Activation: RAT, LIVER, S-9, AROCLOR 1254 (10%), Method: PREINCUBATION
[8] abbreviates: Test System: AMES SALMONELLA TYPHIMURIUM, Strain/Indicator: TA100, Metabolic Activation: HAMSTER, LIVER, S-9, AROCLOR 1254 (10%), Method: PREINCUBATION
[9] abbreviates: Test System: AMES SALMONELLA TYPHIMURIUM, Strain/Indicator: TA100, Metabolic Activation: RAT, LIVER, S-9, AROCLOR 1254 (10%), Method: PREINCUBATION
[10] abbreviates: Test System: AMES SALMONELLA TYPHIMURIUM, Strain/Indicator: TA1535, Metabolic Activation: HAMSTER, LIVER, S-9, AROCLOR 1254 (10%), Method: PREINCUBATION
[11] abbreviates: Test System: AMES SALMONELLA TYPHIMURIUM, Strain/Indicator: TA1535, Metabolic Activation: NONE, Method: PREINCUBATION
The mark [12] stands for this setting: Test System: AMES SALMONELLA TYPHIMURIUM, Strain/Indicator: TA1535, Metabolic Activation: RAT, LIVER, S-9, AROCLOR 1254 (10%), Method: PREINCUBATION
Where [13] appears, read: Test System: AMES SALMONELLA TYPHIMURIUM, Strain/Indicator: TA98, Metabolic Activation: NONE, Method: STANDARD PLATE.

Turning to `Cc1nccc2c1[nH]c1ccccc12`, the mutagenic call by setting is: under setting [1], “active; positive”; (Test System: AMES SALMONELLA TYPHIMURIUM, Strain/Indicator: TA97, Metabolic Activation: RAT, LIVER, S-9, AROCLOR 1254, Method: PREINCUBATION) “inactive; negative”; under setting [2], “inactive; negative”; (Test System: AMES SALMONELLA TYPHIMURIUM, Strain/Indicator: TA98, Metabolic Activation: RAT, LIVER, S-9, AROCLOR 1254, Method: PREINCUBATION) “inactive; negative”; under setting [3], “inactive; negative”; (Test System: AMES SALMONELLA TYPHIMURIUM, Strain/Indicator: TA100, Metabolic Activation: RAT, LIVER, S-9, AROCLOR 1254, Method: PREINCUBATION) “inactive; negative”. For the same molecule, the mutagenic call reads like this: (Test System: AMES SALMONELLA TYPHIMURIUM, Strain/Indicator: TA102, Metabolic Activation: NONE, Method: PREINCUBATION) “inactive; negative”; (Test System: AMES SALMONELLA TYPHIMURIUM, Strain/Indicator: TA102, Metabolic Activation: RAT, LIVER, S-9, AROCLOR 1254, Method: PREINCUBATION) “inactive; negative”.

As to `O=C(Cn1ccnc1[N+](=O)[O-])NCc1ccccc1`, the mutagenic call by setting is: under setting [4], “active; positive”; under setting [5], “active; positive”.

As for `Nc1ccccn1`, the mutagenic call reads like this: under setting [6], “inactive; negative”; under setting [2], “inactive; negative”; under setting [7], “inactive; negative”; under setting [8], “inactive; negative”; under setting [3], “inactive; negative”; under setting [9], “inactive; negative”. In addition, the mutagenic call is “inactive; negative” under setting [10]; “inactive; negative” under setting [11]; “inactive; negative” under setting [12]; “inactive; negative” (Test System: AMES SALMONELLA TYPHIMURIUM, Strain/Indicator: TA1537, Metabolic Activation: HAMSTER, LIVER, S-9, AROCLOR 1254 (10%), Method: PREINCUBATION); “inactive; negative” (Test System: AMES SALMONELLA TYPHIMURIUM, Strain/Indicator: TA1537, Metabolic Activation: NONE, Method: PREINCUBATION); “inactive; negative” (Test System: AMES SALMONELLA TYPHIMURIUM, Strain/Indicator: TA1537, Metabolic Activation: RAT, LIVER, S-9, AROCLOR 1254 (10%), Method: PREINCUBATION).

`CCCCCCCCCCCC[S][Sn]([CH2]CCC)([CH2]CCC)[S]CCCCCCCCCCCC`: the mutagenic call reads like this: (Test System: AMES SALMONELLA TYPHIMURIUM, Strain/Indicator: TA97, Metabolic Activation: HAMSTER, LIVER, S-9, AROCLOR 1254 (10%), Method: PREINCUBATION) “inactive; negative”; (Test System: AMES SALMONELLA TYPHIMURIUM, Strain/Indicator: TA97, Metabolic Activation: HAMSTER, LIVER, S-9, AROCLOR 1254 (30%), Method: PREINCUBATION) “inactive; negative”; under setting [1], “inactive; negative”; (Test System: AMES SALMONELLA TYPHIMURIUM, Strain/Indicator: TA97, Metabolic Activation: RAT, LIVER, S-9, AROCLOR 1254 (10%), Method: PREINCUBATION) “inactive; negative”; (Test System: AMES SALMONELLA TYPHIMURIUM, Strain/Indicator: TA97, Metabolic Activation: RAT, LIVER, S-9, AROCLOR 1254 (30%), Method: PREINCUBATION) “inactive; negative”; under setting [6], “inactive; negative”. Further, the mutagenic call was “inactive; negative” (Test System: AMES SALMONELLA TYPHIMURIUM, Strain/Indicator: TA98, Metabolic Activation: HAMSTER, LIVER, S-9, AROCLOR 1254 (30%), Method: PREINCUBATION); “inactive; negative” under setting [2]; “inactive; negative” under setting [7]; “inactive; negative” (Test System: AMES SALMONELLA TYPHIMURIUM, Strain/Indicator: TA98, Metabolic Activation: RAT, LIVER, S-9, AROCLOR 1254 (30%), Method: PREINCUBATION); “inactive; negative” under setting [8]; “inactive; negative” (Test System: AMES SALMONELLA TYPHIMURIUM, Strain/Indicator: TA100, Metabolic Activation: HAMSTER, LIVER, S-9, AROCLOR 1254 (30%), Method: PREINCUBATION). The mutagenic call under setting [3] is “inactive; negative”; the mutagenic call under setting [9] was “inactive; negative”; the mutagenic call (Test System: AMES SALMONELLA TYPHIMURIUM, Strain/Indicator: TA100, Metabolic Activation: RAT, LIVER, S-9, AROCLOR 1254 (30%), Method: PREINCUBATION) is “inactive; negative”; the mutagenic call under setting [10] was “inactive; negative”; the mutagenic call (Test System: AMES SALMONELLA TYPHIMURIUM, Strain/Indicator: TA1535, Metabolic Activation: HAMSTER, LIVER, S-9, AROCLOR 1254 (30%), Method: PREINCUBATION) is “inactive; negative”; the mutagenic call under setting [11] is “inactive; negative”. Further, the mutagenic call runs as follows: under setting [12], “inactive; negative”; (Test System: AMES SALMONELLA TYPHIMURIUM, Strain/Indicator: TA1535, Metabolic Activation: RAT, LIVER, S-9, AROCLOR 1254 (30%), Method: PREINCUBATION) “inactive; negative”.

On to `CCCCCCN=[N+]=[N-]`, for which the mutagenic call (Test System: Ames Salmonella typhimurium, Strain/Indicator: TA100, Metabolic Activation: None, Method: Preincubation) is “inactive; negative” and the mutagenic call (Test System: Ames Salmonella typhimurium, Strain/Indicator: TA100, Metabolic Activation: Rat, Liver, S-9, Aroclor 1254, Method: Preincubation) is “active; positive”.

Regarding `Cc1cc(C)c(C)cc1C`, the mutagenic call was “inactive; negative” (Test System: AMES SALMONELLA TYPHIMURIUM, Strain/Indicator: TA97A, Metabolic Activation: NONE, Method: STANDARD PLATE); “inactive; negative” (Test System: AMES SALMONELLA TYPHIMURIUM, Strain/Indicator: TA97A, Metabolic Activation: RAT LIVER S-9, AROCLOR 1254, Method: STANDARD PLATE); “inactive; negative” under setting [13]; “inactive; negative” (Test System: AMES SALMONELLA TYPHIMURIUM, Strain/Indicator: TA98, Metabolic Activation: RAT LIVER S-9, AROCLOR 1254, Method: STANDARD PLATE); “inactive; negative” under setting [4]; “inactive; negative” (Test System: AMES SALMONELLA TYPHIMURIUM, Strain/Indicator: TA100, Metabolic Activation: RAT LIVER S-9, AROCLOR 1254, Method: STANDARD PLATE). The mutagenic call is “inactive; negative” (Test System: AMES SALMONELLA TYPHIMURIUM, Strain/Indicator: TA102, Metabolic Activation: NONE, Method: STANDARD PLATE) and “inactive; negative” (Test System: AMES SALMONELLA TYPHIMURIUM, Strain/Indicator: TA102, Metabolic Activation: RAT LIVER S-9, AROCLOR 1254, Method: STANDARD PLATE).

Turning to `[Br][Pb][Br]`, the mutagenic call by setting is: (Test System: AMES SALMONELLA TYPHIMURIUM, Strain/Indicator: TA1535, Metabolic Activation: NONE) “active; positive”; (Test System: AMES SALMONELLA TYPHIMURIUM, Strain/Indicator: TA1537, Metabolic Activation: NONE) “inactive; negative”.

For the molecule `Oc1cc2ccccc2c2ccc3ccccc3c12`, the mutagenic call runs as follows: under setting [13], “inactive; negative”; (Test System: AMES SALMONELLA TYPHIMURIUM, Strain/Indicator: TA98, Metabolic Activation: RAT, LIVER, S-9, AROCLOR 1254, Method: STANDARD PLATE) “inactive; negative”; under setting [4], “inactive; negative”; under setting [5], “inactive; negative”.
